Numbers after ± are expanded uncertainties.
Tests used:
[1] = 101.33 kPa, Liquid
[2] = xn = mol fraction of the nth substance listed; settings: 101 kPa, Liquid

CCCCCCOCCOCCO [2-(2-hexyloxyethoxy)ethanol]
[1]
Settings | mass density [kg/m3]
288.15 K | 924.348 ± 0.29
298.15 K | 915.522 ± 0.3
308.15 K | 906.642 ± 0.31

CCCCCCOCCOCCO [2-(2-hexyloxyethoxy)ethanol] + CCCCCCCO
mass density [kg/m3], [2]
Settings | 288.15 K | 298.15 K | 308.15 K
x1 = 0.1109 | 840.489 ± 0.41 | 833.182 ± 0.42 | 825.922 ± 0.43
x1 = 0.1592 | 846.447 ± 0.4 | 839.091 ± 0.41 | 831.645 ± 0.42
x1 = 0.1986 | 851.154 ± 0.39 | 843.756 ± 0.4 | 836.178 ± 0.41
x1 = 0.258 | 857.994 ± 0.38 | 850.491 ± 0.39 | 842.797 ± 0.41
x1 = 0.3094 | 863.644 ± 0.38 | 856.08 ± 0.39 | 848.254 ± 0.4
x1 = 0.3515 | 868.149 ± 0.37 | 860.468 ± 0.38 | 852.588 ± 0.39
x1 = 0.3927 | 872.418 ± 0.36 | 864.636 ± 0.37 | 856.716 ± 0.39
x1 = 0.4463 | 877.834 ± 0.35 | 869.912 ± 0.36 | 861.89 ± 0.38
x1 = 0.5084 | 883.872 ± 0.34 | 875.796 ± 0.36 | 867.692 ± 0.37
x1 = 0.5574 | 888.492 ± 0.34 | 880.349 ± 0.35 | 872.159 ± 0.36
x1 = 0.6167 | 893.921 ± 0.33 | 885.645 ± 0.34 | 877.389 ± 0.35
x1 = 0.6511 | 896.97 ± 0.33 | 888.674 ± 0.34 | 880.331 ± 0.35
x1 = 0.7101 | 902.042 ± 0.32 | 893.703 ± 0.33 | 885.279 ± 0.34
x1 = 0.7491 | 905.269 ± 0.31 | 896.923 ± 0.33 | 888.446 ± 0.34
x1 = 0.8085 | 910.029 ± 0.31 | 901.658 ± 0.32 | 893.122 ± 0.33
x1 = 0.8543 | 913.588 ± 0.3 | 905.198 ± 0.31 | 896.613 ± 0.33
x1 = 0.9087 | 917.663 ± 0.29 | 909.197 ± 0.31 | 900.531 ± 0.32
x1 = 0.9487 | 920.583 ± 0.29 | 912.028 ± 0.3 | 903.307 ± 0.32

CCCCCCOCCOCCO [2-(2-hexyloxyethoxy)ethanol] + CCCCCO
mass density [kg/m3], [2]
Settings | 288.15 K | 298.15 K | 308.15 K
x1 = 0.1112 | 837.545 ± 0.41 | 830.059 ± 0.42 | 822.319 ± 0.44
x1 = 0.1587 | 846.35 ± 0.4 | 838.122 ± 0.41 | 830.389 ± 0.42
x1 = 0.2096 | 855.128 ± 0.39 | 846.145 ± 0.4 | 838.566 ± 0.41
x1 = 0.2584 | 862.625 ± 0.38 | 853.171 ± 0.39 | 845.659 ± 0.4
x1 = 0.3012 | 868.44 ± 0.37 | 858.72 ± 0.38 | 851.35 ± 0.39
x1 = 0.3558 | 874.88 ± 0.36 | 865.166 ± 0.37 | 857.77 ± 0.38
x1 = 0.4022 | 879.672 ± 0.35 | 870.098 ± 0.36 | 862.642 ± 0.38
x1 = 0.4506 | 884.17 ± 0.34 | 874.849 ± 0.36 | 867.245 ± 0.37
x1 = 0.5069 | 889.049 ± 0.34 | 880.057 ± 0.35 | 872.125 ± 0.36
x1 = 0.541 | 891.897 ± 0.33 | 883.079 ± 0.35 | 874.951 ± 0.36
x1 = 0.5971 | 896.445 ± 0.33 | 887.853 ± 0.34 | 879.382 ± 0.35
x1 = 0.6456 | 900.337 ± 0.32 | 891.848 ± 0.33 | 883.098 ± 0.35
x1 = 0.6998 | 904.59 ± 0.31 | 896.131 ± 0.33 | 887.198 ± 0.34
x1 = 0.747 | 908.177 ± 0.31 | 899.702 ± 0.32 | 890.721 ± 0.34
x1 = 0.8052 | 912.354 ± 0.3 | 903.888 ± 0.32 | 894.96 ± 0.33
x1 = 0.8501 | 915.348 ± 0.3 | 906.892 ± 0.31 | 898.056 ± 0.32
x1 = 0.9008 | 918.511 ± 0.29 | 910.007 ± 0.31 | 901.375 ± 0.32
x1 = 0.9459 | 921.161 ± 0.29 | 912.609 ± 0.3 | 903.991 ± 0.32

Source: the NIST ThermoML archive (doi:10.1016/j.fluid.2008.02.005)
